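Step 1: Grow cells in 96-well plates. Step 2: Expose to compound for 48 hours at 5 concentrations. Step 3: Interpolate endpoints linearly; if unreached, use highest concentration. GI50 is the concentration that inhibits growth by half. Definition used: TGI = concentration required for complete inhibition of growth.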
Legend:
Test in all cases: inhibition of tumour cell growth, NCI panel, 48 h
[1] = test system: MOLT-4 leukemia
[2] = test system: RPMI-8226 leukemia
[3] = test system: RXF 393 renal
[4] = test system: SK-MEL-2 melanoma
[5] = test system: SNB-75 CNS
[6] = test system: SW-620 colon
[7] = test system: U251 CNS
[8] = test system: UO-31 renal
[9] = test system: A498 renal
[10] = test system: MDA-MB-435

Structure (SMILES)	TGI [1] [µM]	TGI [2] [µM]	TGI [3] [µM]	TGI [4] [µM]	TGI [5] [µM]	TGI [6] [µM]	TGI [7] [µM]	TGI [8] [µM]	GI50 [9] [µM]	TGI [9] [µM]	GI50 [1] [µM]	GI50 [2] [µM]	GI50 [3] [µM]	GI50 [4] [µM]	GI50 [5] [µM]	GI50 [6] [µM]	GI50 [7] [µM]	GI50 [8] [µM]	TGI [10] [µM]
N#C/C(=C/c1ccc([N+](=O)[O-])o1)c1ccccc1	> 100	> 100	> 100	> 100	> 100	> 100	> 100	> 100	–	–	–	–	–	–	–	–	–	–	–
COc1ccc([C@@H]2[C@@H](Cl)C(=O)N2c2cc(OC)c(OC)c(OC)c2)cc1C	> 100	28.3	20.6	19.6	37.9	34.5	17.5	47.6	0.0335	0.314	0.181	0.0641	0.0313	0.0496	0.0355	0.0462	0.044	0.172	–
COc1ccc(/C=C\c2cc(OC)c(OC)c(OC)c2)cc1NC(=O)/C=C/c1cc(OC)c(OC)c(OC)c1	> 100	> 100	8.96	–	–	> 100	> 100	> 100	0.949	> 100	8.52	2.9	2.66	–	–	5.2	3.82	2.64	–
CCOC(=O)Nc1cc2c(c(N)n1)N=C(c1ccc(Cl)cc1Cl)CN2	> 100	> 100	–	19.7	36.5	30.4	18	22.7	–	20.6	–	–	–	–	–	–	–	–	< 0.0239
Cc1nc2ccccc2c(=O)n1/N=C(\N=Nc1cc(Cl)ccc1Cl)c1ccc(N(C)C)cc1	> 100	> 100	81.8	–	–	> 100	> 100	> 100	–	> 100	–	–	–	–	–	–	–	–	–
C#Cc1c(C)c(/C=C/C(C)=C\C(=O)OC)n(C)c1C	> 100	> 100	–	–	–	> 100	> 100	> 100	–	> 100	–	–	–	–	–	–	–	–	–
Nc1ncc(CN2CCCC2)c(-c2ccccc2O)n1	> 750	> 750	> 750	–	> 750	> 750	> 750	> 750	–	> 750	–	–	–	–	–	–	–	–	–
O=C(CC1(O)C(=O)Nc2ccc(Cl)cc21)c1ccc(C(=O)NCC2CCC3(CC2)OOC2(CCCCC2)OO3)cc1 (stereo not given)	5.09	4.72	9.16	4.78	3.25	4.61	3.39	–	10.2	28	2.05	1.73	2.8	2.16	1.34	2.13	1.64	–	–
CC(C)(c1ccc(C=O)o1)c1ccc(C(C)(C)c2ccc(C=O)o2)o1	> 100	–	> 100	> 100	–	> 100	> 100	–	–	> 100	–	–	–	–	–	–	–	–	–
O=C1CCNC/C1=C\c1ccccc1	> 100	83.6	–	> 100	> 100	95.3	38	35.5	–	> 100	–	–	–	–	–	–	–	–	–
